Source: US8343531B2, “Composition containing peptide as active ingredient” (Meiji Co., Ltd., priority 2006, dated 2013)
Residues, ends and D or L forms follow the SMILES beside them.

Key:
Rat L6 myotubes = experiment: Rate of glucose uptake into muscle cells; assay type: cell-based; settings: 1 mM dipeptide, 3 hours, then 8 mM 2-deoxyglucose 10 minutes; average ± SD; control 1.21 ± 0.07
Method: Rat L6 myotubes were cultured in an Eagle medium containing 10% bovine serum (α-MEM) in a Petri dish coated with type 1 collagen in 5% CO2/95% O2. The cells were recovered by trypsin treatment in a usual manner and seeded at a density of 50,000 cells/well on a 48-well plate coated with type 1 collagen, and cultured for 3 days to make the cells confluent. After the medium was removed, 500 μL of an Eagle medium containing 2% bovine serum (α-MEM) was added to each well, and then the cells were cultured for 5 days thereby inducing differentiation. Each well was washed with 500 μL KRH buffer (136 mM NaCl, 4.7 mM KCl, 1.25 mM CaCl2, 1.25 mM MgSO4.7H2O, 20 mM Hepes, 1 mg/mL BSA, pH 7.4) carefully such that the cells were not detached. Then, […] KRH buffer containing 1 mM Ile-Leu, Ile-Trp, Ala-Leu, Val-Leu, Gly-Leu, Asp-Leu, Lys-Ile, Leu-Leu, Ile-Ile, Leu-Ile, Ile-Asn, Leu-Ala, Leu-Glu, Leu-Val or Ile-Val (Kokusan Chemical Co., Ltd.) was added to each well and reacted for 3 hours with the cells. Thereafter, the KRH buffer was removed, and […] buffer containing 8 mM 2-deoxyglucose was added to each well and reacted for accurately 10 minutes with for the cells. The reaction was terminated with […] 0.1 N NaOH, followed by neutralization with an equal volume of 0.1 N HCl, and then the amount of 2-deoxyglucose 6-phosphate in the cells was quantified by an enzymatic method to determine the rate of glucose uptake.

[1] = tested on: isolated epitrochlearis muscles; experiment: Rate of glucose uptake into isolated muscles; assay type: cell-based, Wister rats; settings: 1 mM dipeptide, 30 min at 30° C., then 8 mM 2-deoxyglucose 20 min; average ± SD; control 0.95 ± 0.10
Method: Epitrochlearis muscles were excised from male Wister rats (each weighing 120 g) (16 rats) under pentobarbital anesthesia carefully so as not to hurt the epitrochlearis muscles. The epitrochlearis muscles were incubated at 35° C. for 1 hour in KRH buffer (136 mM NaCl, 4.7 mM KCl, 1.25 mM CaCl2, 1.25 mM MgSO4.7H2O, 20 mM Hepes, 1 mg/mL BSA, pH 7.4; referred to hereinafter as KRH buffer) containing 0.1% bovine serum albumin (BSA), 8 mM glucose and 32 mM mannitol, in 5% CO2/95% O2. Thereafter, the epitrochlearis muscles were removed and incubated (8 samples per group) at 30° C. for 30 minutes in KRH buffer containing 0.1% BSA, 40 mM mannitol, and 1 mM Ile-Leu (Kokusan Chemical Co., Ltd.), 1 mM Ile-Trp (Kokusan Chemical Co., Ltd.), or the milk whey protein hydrolysate containing 1 mM leucine in terms of amino acid, produced in Production Example 1, in 5% CO2/95% O2. Then, the epitrochlearis muscles were removed and incubated at 30° C. for accurately 20 minutes in KRH buffer containing 0.1% BSA, 32 mM mannitol and 8 mM 2-deoxyglucose, in 5% CO2/95% O2. […] Thereafter, the frozen epitrochlearis muscles were homogenized in 0.3 M perchloric acid aqueous solution, and after the resulting suspension was neutralized, the amount of 2-deoxyglucose-6-phosphate in the muscles was quantified by an enzymatic method to determine the rate of glucose uptake.

[2] = tested on: isolated epitrochlearis muscles; experiment: Influence of PI3K inhibitor and GLUT-4 inhibitor on the rate of glucose uptake into isolated muscles; assay type: cell-based, Wister rats; settings: 1 mM Ile-Leu alone; average ± SD; control 0.95 ± 0.10
Method: Epitrochlearis muscles were excised from male Wister rats (each weighing 120 g) (8 samples per group) under pentobarbital anesthesia carefully so as not to hurt the epitrochlearis muscles. The epitrochlearis muscles were incubated at 35° C. for 1 hour in KRH buffer containing 0.1% BSA, 8 mM glucose and 32 mM mannitol, in 5% CO2/95% O2. Thereafter, the epitrochlearis muscles were removed and incubated at 30° C. for 30 minutes in KRH buffer containing 0.1% BSA, 40 mM mannitol, and 1 mM Ile-Leu (Kokusan Chemical Co., Ltd.), 1 mM Ile-Leu+10 μM LY294002 (Sigma) or 1 mM Ile-Leu+70 μM cytochalasin B (Sigma) in 5% CO2/95% O2. Then, the epitrochlearis muscles were removed and incubated at 30° C. for accurately 20 minutes in KRH buffer containing 0.1% BSA, 32 mM mannitol and 8 mM 2-deoxyglucose, in 5% CO2/95% O2. Immediately after incubation for accurately 20 minutes, the epitrochlearis muscles were frozen with liquid nitrogen. Thereafter, the frozen epitrochlearis muscles were homogenized in 0.3 M perchloric acid aqueous solution, and after the resulting suspension was neutralized, the amount of 2-deoxyglucose 6-phosphate in the muscles was quantified by an enzymatic method to determine the rate of glucose uptake.

Wister rats = experiment: Oral glucose tolerance test; assay type: in vivo; settings: 0.1 g/kg BW oral with glucose 2.0 g/kg BW
Method: Male Wister rats each weighing about 360 g (6 rats per group) were used. The rats were fasted for 18 hours and then administered with 30% glucose aqueous solution in a dose of 2.0 g/kg body weight (BW). […] After 30, 60, 90, 120 and 180 minutes, blood was collected from a rat tail vein and measured for its blood glucose level with Diasensor (manufactured by ARKRAY, Inc.).

Compound	Rate of glucose uptake into muscle cells (Rat L6 myotubes) [nmol/min/well]	further results
Ile-Ile	1.88 ± 0.05	–
Ala-Leu	1.91 ± 0.07	–
Leu-Ile	1.73 ± 0.04	–
Val-Leu	1.76 ± 0.07	–
Ile-Val	1.80 ± 0.07	–
Leu-Ala	2.09 ± 0.08	–
Leu-Leu	1.75 ± 0.05	–
Gly-Leu	1.81 ± 0.04	–
Asp-Leu	1.81 ± 0.50	–
Lys-Ile	2.34 ± 0.06	–
Ile-Trp	1.91 ± 0.06	Rate of glucose uptake into isolated skeletal muscles [1]: 1.92 ± 0.31 μmol/min/g muscle
Leu-Val	1.74 ± 0.06	–
Leu-Glu	2.16 ± 0.05	–
CC[C@H](C)[C@H](N)C(=O)N[C@@H](CC(C)C)C(=O)O [Ile-Leu, Isoleucyl leucine] (H-Ile-Leu-OH)	1.61 ± 0.05	Rate of glucose uptake into isolated skeletal muscles [1]: 1.88 ± 0.40 μmol/min/g muscle; Rate of glucose uptake into isolated skeletal muscles [2]: 1.88 ± 0.40 μmol/min/g muscle; Blood glucose level (change) (Wister rats; 0 minute, fasted rats, average ± SD): 0 ± 0 mg/100 mL; Blood glucose level (change) (Wister rats; 30 minutes, glucose alone 62 ± 4): 44 ± 8 mg/100 mL; Blood glucose level (change) (Wister rats; 60 minutes, glucose alone 61 ± 4): 57 ± 7 mg/100 mL; Blood glucose level (change) (Wister rats; 90 minutes, glucose alone 57 ± 4): 35 ± 4 mg/100 mL; Blood glucose level (change) (Wister rats; 120 minutes, glucose alone 27 ± 6): 19 ± 3 mg/100 mL; Blood glucose level (change) (Wister rats; 180 minutes, glucose alone 5 ± 1): 1 ± 3 mg/100 mL
Ile-Asn	1.92 ± 0.06	–
